ChEMBL document CHEMBL1130366, “Search for surrogates: A study of endothelin receptor antagonist structure activity relationships” (Bioorg Med Chem Lett, 1997)
pIC50: −log10 of the molar value.

Assays:
[1] = target: T1, Endothelin receptor type B (Homo sapiens, UniProt P24530); assay: Inhibition of I-ET-1 binding to human Endothelin B receptor
T1 sequence (P24530 whole entry): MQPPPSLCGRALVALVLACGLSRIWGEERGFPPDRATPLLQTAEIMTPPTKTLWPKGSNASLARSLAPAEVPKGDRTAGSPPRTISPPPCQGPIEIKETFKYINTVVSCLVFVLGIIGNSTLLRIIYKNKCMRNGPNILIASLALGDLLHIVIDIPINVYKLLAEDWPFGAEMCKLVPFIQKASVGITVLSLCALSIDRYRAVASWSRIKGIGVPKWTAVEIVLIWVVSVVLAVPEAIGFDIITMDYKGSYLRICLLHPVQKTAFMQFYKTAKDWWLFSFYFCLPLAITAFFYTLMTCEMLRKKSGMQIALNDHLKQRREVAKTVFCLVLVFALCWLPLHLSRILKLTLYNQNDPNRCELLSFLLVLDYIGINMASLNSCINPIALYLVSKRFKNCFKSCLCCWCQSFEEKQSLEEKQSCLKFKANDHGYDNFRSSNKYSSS

Endothelin-1 receptor = target: T2, Endothelin-1 receptor (Homo sapiens, UniProt P25101); assay: Inhibition of I-ET-1 binding to human Endothelin A receptor
T2 sequence (P25101 whole entry): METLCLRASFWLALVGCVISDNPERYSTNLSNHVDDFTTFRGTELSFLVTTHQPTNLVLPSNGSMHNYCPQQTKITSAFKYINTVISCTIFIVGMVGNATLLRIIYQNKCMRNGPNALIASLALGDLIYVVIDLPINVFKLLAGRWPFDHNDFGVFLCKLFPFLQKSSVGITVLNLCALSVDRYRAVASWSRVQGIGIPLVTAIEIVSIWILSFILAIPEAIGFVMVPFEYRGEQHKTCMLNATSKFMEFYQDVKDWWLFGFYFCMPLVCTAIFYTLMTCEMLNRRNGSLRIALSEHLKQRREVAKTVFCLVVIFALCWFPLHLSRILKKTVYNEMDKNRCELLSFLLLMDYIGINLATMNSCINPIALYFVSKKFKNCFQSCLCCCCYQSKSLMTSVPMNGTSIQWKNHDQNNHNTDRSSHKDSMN

Compound | pIC50 [1] | pIC50 (Endothelin-1 receptor)
Cc1ccc(OCc2sccc2S(=O)(=O)Nc2onc(C)c2Br)cc1 | 4.81 | 
Cc1noc(NS(=O)(=O)c2sccc2COc2ccc3c(c2)OCO3)c1Br | 5.02 | 6.29
Cc1ccc(OCc2ccsc2S(=O)(=O)Nc2onc(C)c2Br)c(C)c1 | 5.14 | 
Cc1noc(NS(=O)(=O)c2ccsc2COc2ccc3c(c2)OCO3)c1Br | 5.23 | 6.52
Cc1cc(C)c(OCc2sccc2S(=O)(=O)Nc2onc(C)c2Br)c(C)c1 | 5.51 | 7.21
Cc1cc(C)c(OCc2ccsc2S(=O)(=O)Nc2onc(C)c2Br)c(C)c1 | 5.37 | 7.27

Stronger by pIC50 [1], values ahead:

pIC50 [1] | pIC50 (Endothelin-1 receptor) | Compound
5.88 | 6.87 | CCCc1cc2c(cc1OCc1ccsc1S(=O)(=O)Nc1onc(C)c1Br)OCO2
6.12 | 6.89 | Cc1noc(NS(=O)(=O)c2ccsc2COc2cc3c(cc2Cl)OCO3)c1Br
6.47 | 6.98 | CCCc1cc2c(cc1OCc1sccc1S(=O)(=O)Nc1onc(C)c1Br)OCO2
